Data published in patent US7655778B2, “SISP-1, a novel p53 target gene and use thereof” (priority 2006, dated 2010).

What was measured:
[1] = tested on: HCT116 colon carcinoma cells; experiment: Cell death Elisa (DNA fragmentation) after adenoviral SISP-1 infection; format: cell-based, human; conditions: etoposide 30 μM, 24 hours, 12 hour post infection
Protocol: (§1) Next, the inventor investigated the apoptotic effects of SISP-1 expression in human colon cancer cells and breast carcinoma cells by using adenovirus expressing SISP-1. […] Adenoviruses expressing HA-tagged SISP-1 (Ad-SISP-1) or GFP (Ad-GFP as a control) were generated, amplified and titrated. HCT 116 colon carcinoma cells and MDAMB435 breast cancer cells were grown to 50-70% confluency and infected with recombinant adenovirus at multiplicity of infection (MOI) of 15-30. […] Then, cell death rate was measured by DNA fragmentation assay (Cell death Elisa kit, Roche).

[2] = tested on: MDAMB435 breast cancer cells; experiment: as above; format: cell-based, human; conditions: etoposide 30 μM, 24 hours, 12 hour post infection
Protocol: as §1

U2OS osteosarcoma cells [3] = experiment: Cell-Death Elisa, tetracycline-inducible SISP-1 plus etoposide; format: cell-based; conditions: SISP-1 or etoposide (15 μM) alone, FIG. 9A
Protocol: U2OS-tet-on-SISP-1 cells were generated by isolating tetracycline regulated stable-clones expressing SISP-1 upon tetracycline addition (doxycycline, Sigma). U2OS-SISP-1 cells were cultured in the presence or absence of doxycycline (1 μg/ml) for 24 hours.

[4] = tested on: EJ bladder carcinoma cells; experiment: Etoposide-induced cell death with inducible SISP-1 (FIG. 10); format: cell-based, human; conditions: over 48 hours
Description: (§2) The present inventor further examined whether SISP-1 could also sensitize U2OS cells that is known to be quite resistant to chemo-drugs.
(§3) The inventor re-evaluated this effect in a rapidly growing human bladder carcinoma cell line, EJ, since SISP-1 may be used a strong candidate as a new sensitizing molecule that improves the therapeutic efficacy and minimizes the toxicity of chemo-drugs. To further confirm the sensitizing effects of SISP-1 expression in a combination of chemo-drugs, we generated tumor cells containing the tetracycline-regulated inducible expression of SISP-1 using U2OS and EJ lines.

U2OS osteosarcoma cells [5] = experiment: as above; format: cell-based; conditions: over 48 hours
Description: as §2, §3

[6] = tested on: IMR90 normal diploid fibroblasts; experiment: Northern blot of SISP-1 mRNA induction by genotoxic drugs; format: cell-based; conditions: IMR90 cells; etoposide 50 μM or CPT 600 nM, 24-48 hours; FIG. 4A
Protocol: IMR90 normal diploid fibroblasts (Obtained from ATCC) were cultured in Dulbecco's modified Eagle's medium (DMEM, Invitrogen)) containing 10% fetal bovine serum (FBS, Hyclone), 100 units/ml of penicillin, and 100 μg/ml of streptomycin at 37° C. […] Then, total RNA was extracted, denatured, electrophoresed through a 1% agarose-formaldehyde gel and transferred to a nylon membrane. Hybridization was performed with ^32P-labeled probes, SISP1, p21 or 36B4 (a loading control) prepared by the randomly primed DNA labeling method.

Row | Structure (SMILES) | sensitization of SISP-1 overexpressing cells by etoposide [1] | sensitization of SISP-1 overexpressing cells by etoposide [2] | cell death by single treatment (U2OS osteosarcoma cells [3]) | cell death by etoposide itself [4] | cell death by etoposide itself (U2OS osteosarcoma cells [5]) | expression of SISP-1 mRNA [6]
1 | COc1cc([C@@H]2c3cc4c(cc3[C@@H](O[C@@H]3O[C@@H]5CO[C@@H](C)O[C@H]5[C@H](O)[C@H]3O)[C@H]3COC(=O)[C@H]23)OCO4)cc(OC)c1O [etoposide, reference compound] | selectively sensitized | selectively sensitized | did not induce cell death | induced a limited cell death | induced a limited cell death | –
2 | CC[C@@]1(O)C(=O)OCc2c1cc1n(c2=O)Cc2cc3ccccc3nc2-1 [CPT, camptothecin] | – | – | – | – | – | induced
